Assay results: patent US20210322382A1, “METHODS AND COMPOSITIONS FOR IMPROVED TREATMENT OF SINUS DISEASE” (Veloce BioPharma LLC, priority 2020, published 2021)

Experiments:
[1] = Stability of PVP-I solutions, USP method; format: physicochemical; settings: aprotic DMSO solvent system, long periods of time
Text: It is known that PVP-I aqueous solutions are difficult to stabilize at low concentrations over a long time. At concentrations less than about 0.7% PVP-I (w/w, aqueous), PVP-I aqueous solutions rapidly decay to yield complex mixtures of iodinated and iodine-free constituents. […] It is of additional novelty that even in the hydrated DMSO solutions prepared from aqueous PVP-I, increased stability is observed for the PVP-I component.

[2] = stated as known drawback of PVP-I; cited from earlier work
[3] = aqueous solution; stated as known; cited from earlier work

povidone-iodine [PVP-I]
lowest PVP-I concentration prepared and maintained as stable composition [1]: 0.1%
PVP-I concentration above which toxic to the sinuses [2]: above 2.2 % w/w
PVP-I concentration below which aqueous solutions rapidly decay [3]: less than 0.7 % (w/w, aqueous)
